Measured values reported in patent publication US5219854A, “Blood platelet-decreasing method” (Nissan Chemical Industries Ltd., priority 1991, dated 1993).

Key:
[1] = Acute toxicity test after single oral administration, dog; conditions: in vivo, dog (beagle, 6 months old), read-out: 50% lethal dose (LD50)
Description: (§1) These compounds have low toxicities and thus may be sufficiently used for medical products. For example, the 50% lethal dose (LD50) in the acute toxicity tests after single oral administration of 4 brome-5-(3-ethoxy-4-methoxybenzylamino)-3(2H)-pyridazinone as a typical compound thereof, was 2,000 mg/kg with respect to each of mouse (ICR strain, 6 weeks old), rat (SD strain, 6 weeks old) and dog (beagle, 6 months old).

[2] = Subjective symptoms, diagnosis by doctor, scientific and clinical examination during repeated oral administration; type: in vivo, human (healthy adult males); conditions: oral 40 mg three times a day for 7 days; until 29th day after the termination
Description: (§2) To each of six healthy adult males (23 to 32 years age, average: 28 years age), two tablets each containing 20 mg of 4-bromo-5-(3-ethoxy-4-methoxybenzylamino)-3(2H)-pyridazinone (Compound A) were orally administered (40 mg) three times a day (120 mg) in the morning, noon and evening for 7 days (on the 7th day, administered only in the morning). Examinations were conducted with respect to the following four items from the time before the administration to the time until the 29th day after the termination of administration.
Everyday during the period of examination, each testee records the subjective symptoms.
A doctor makes diagnoses by asking, or ansculating and percussioning, and records their observations.
Blood pressure, pulse rate, body temperature, breathing rate, ECG (12 derivatives), pulmonary function (FVC, FEV1.0%), and visual or acoustic observation
(§3) Erythrocyte count, leukocyte count, hemoglobin quantity, hematocrit value, blood platelet count, reticulocyte count, leukocyte fraction and prothrombin time
Total protein, albumin, A/G ratio (protein fraction), BUN, creatinine, uric acid, total cholesterol, neutral fats, Na, K, Cl, Al-P, LAP, GOT, GPT, LDH, γ-GTP, ZTT, TTT, CPK, total bilirubin, direct bilirubin and blood sugar
Specific gravity, pH, bilirubin, urobilinogen, ketone body, sugar, protein and sedimentation

[3] = Acute toxicity test after single oral administration, mouse; conditions: in vivo, mouse (ICR strain, 6 weeks old), read-out: 50% lethal dose (LD50)
Description: as §1

[4] = Acute toxicity test after single oral administration, rat; conditions: in vivo, rat (SD strain, 6 weeks old), read-out: 50% lethal dose (LD50)
Description: as §1

blood platelet count = assay: Change of blood platelet count at the time of repeated administration of Compound A; type: in vivo, human (healthy adult males)
Description: as §2
(1) Hematological Examination
as §3

Q: With CCOc1cc(CNc2cn[nH]c(=O)c2Br)ccc1OC [Compound A, 4-bromo-5-(3-ethoxy-4-methoxybenzylamino)-3(2H)-pyridazinone] as the compound, how does the LD50 [1] read?
A: Its LD50 is 2000 mg/kg.

Q: What about the “Symptoms or changes in all items of examinations other than the blood platelet count” value [2] of the same compound?
A: The value was “no problematic symptom or change has been observed”.

Q: What about the LD50 [3] of the same compound?
A: The LD50 was 2000 mg/kg.

Q: What about the LD50 [4] of the same compound?
A: The LD50 was 2000 mg/kg.

Q: What about the “Blood platelet count, average value ± a standard deviation” value (blood platelet count; 1st day after the termination of administration, oral 40 mg three times a day for 7 days, ***p < 0.001 vs before administration (paired t-test)) of the same compound?
A: The value was 14.1 ± 2.0 ×10^4 /μl.

Q: What about the “Blood platelet count, average value ± a standard deviation” value (blood platelet count; 6th day after the termination of administration, oral 40 mg three times a day for 7 days, **p < 0.01 vs before administration (paired t-test)) of the same compound?
A: Its value is 20.4 ± 2.2 ×10^4 /μl.

Q: What about the “Blood platelet count, average value ± a standard deviation” value (blood platelet count; 29th day after the termination of administration, oral 40 mg three times a day for 7 days) of the same compound?
A: Its value is 29.2 ± 3.9 ×10^4 /μl.

Q: What about the “Blood platelet count, average value ± a standard deviation” value (blood platelet count; 3 days after the initiation of administration, oral 40 mg three times a day (120 mg/day), **p < 0.01 vs before administration (paired t-test)) of the same compound?
A: Its value is 25.0 ± 2.7 ×10^4 /μl.

Q: What about the “Blood platelet count, average value ± a standard deviation” value (blood platelet count; before the initiation of administration (baseline), six healthy adult males) of the same compound?
A: Its value is 27.6 ± 2.6 ×10^4 /μl.
